Assays:
[1] = system: CGRP receptor (CALCRL/RAMP1) (Homo sapiens); test: Ratio Ki for CGRP receptor in human SK-N-MC cells in the absence of MgCl2 to Ki for CGRP receptor in human SK-N-MC cells in the presence of MgCl2
[2] = Half life in dog at 0.5 mg/kg, iv; assay type: ADME, organism-based, Canis lupus familiaris; set-up: dose 0.5 mg/kg, route intravenous; conditions: in vivo
[3] = Half life in rat at 2 mg/kg, iv; assay type: ADME, organism-based; set-up: dose 2 mg/kg, route intravenous; conditions: in vivo
[4] = Clearance in dog at 0.5 mg/kg, iv and 1 mg/kg, po; assay type: ADME, organism-based, Canis lupus familiaris; conditions: in vivo
[5] = Clearance in rat at 2 mg/kg, iv and 10 mg/kg, po; assay type: ADME, organism-based; conditions: in vivo
[6] = Volume of distribution at steady state in dog at 0.5 mg/kg, iv and 1 mg/kg, po; assay type: ADME, organism-based, Canis lupus familiaris; conditions: in vivo, read-out: Vdss
[7] = Oral bioavailability in rat at 10 mg/kg; assay type: ADME, organism-based; conditions: in vivo
[8] = Volume of distribution at steady state in rat at 2 mg/kg, iv and 10 mg/kg, po; assay type: ADME, organism-based; conditions: in vivo, read-out: Vdss
[9] = Oral bioavailability in dog at 1 mg/kg; assay type: ADME, organism-based, Canis lupus familiaris; conditions: in vivo

Ratio Ki [1] | half-life [2] [min] | half-life [3] [min] | clearance [4] [mL/min/kg] | clearance [5] [mL/min/kg] | Vd [6] [L/kg] | bioavailability [7] [%] | Vd [8] [L/kg] | bioavailability [9] [%] | Compound
1 | – | – | – | – | – | – | – | – | CC(C)C[C@H](NC(=O)CNC(=O)[C@H](C)NC(=O)[C@H](CC(C)C)NC(=O)[C@H](CCCNC(=N)N)NC(=O)[C@H](Cc1cnc[nH]1)NC(=O)[C@@H](NC(=O)[C@@H](NC(=O)[C@H](CS)NC(=O)[C@@H](NC(=O)[C@H](C)NC(=O)[C@@H](NC(=O)[C@H](CC(=O)O)NC(=O)[C@H](CS)NC(=O)[C@H](C)N)[C@@H](C)O)[C@@H](C)O)C(C)C)[C@@H](C)O)C(=O)N[C@@H](CC(C)C)C(=O)N[C@@H](CO)C(=O)N[C@@H](CCCNC(=N)N)C(=O)N[C@@H](CO)C(=O)NCC(=O)NCC(=O)N[C@H](C(=O)N[C@H](C(=O)N[C@@H](CCCCN)C(=O)N[C@@H](CC(N)=O)C(=O)N[C@@H](CC(N)=O)C(=O)N[C@@H](Cc1ccccc1)C(=O)N[C@H](C(=O)N1CCC[C@H]1C(=O)N[C@H](C(=O)N[C@@H](CC(N)=O)C(=O)N[C@H](C(=O)NCC(=O)N[C@@H](CO)C(=O)N[C@@H](CCCCN)C(=O)N[C@@H](C)C(=O)N[C@@H](Cc1ccccc1)C(N)=O)C(C)C)[C@@H](C)O)C(C)C)C(C)C)C(C)C
– | 426 | 324 | 5.1 | 1.1 | 3 | 26 | 0.4 | 13 | O=C(NCc1cc(F)cc(F)c1)c1nc(N2CCCCS2(=O)=O)cc(Br)c1O

Source: ChEMBL document CHEMBL1909622, “Identification of a novel RAMP-independent CGRP receptor antagonist” (Bioorg Med Chem Lett, 2011)
